Data reported in paper doi:10.1101/2024.08.19.608619, “Discovery of potent SARS-CoV-2 nsp3 macrodomain inhibitors uncovers lack of translation to cellular antiviral response” (bioRxiv, 2024).
Like-named read-outs stand apart in the source and are kept apart here.

Experiments:
SARS-CoV-2 nsp3-mac1 [1] = target: T1, SARS-CoV-2 nsp3-mac1 (Severe acute respiratory syndrome coronavirus 2, UniProt P0DTD1); test: biochemical; type: biochemical; conditions: SARS-CoV-2 nsp3 macrodomain TR-FRET single point
SARS-CoV-2 nsp3-mac1 [2] = target: T1, SARS-CoV-2 nsp3-mac1; test: biochemical; set-up: SARS-CoV-2 nsp3 macrodomain TR-FRET single point, per cent inhibition, n=2
[3] = read-out: perc_inhibition_mean, batch_name=ASAP-0000469-001
[4] = read-out: perc_inhibition_mean, batch_name=ASAP-0000309-001
[5] = read-out: perc_inhibition_mean, batch_name=ASAP-0000465-001
[6] = read-out: perc_inhibition_mean, batch_name=ASAP-0000380-001
[7] = read-out: perc_inhibition_mean, batch_name=ASAP-0000268-001
[8] = read-out: perc_inhibition_mean, batch_name=ASAP-0000282-001
[9] = read-out: perc_inhibition_mean, batch_name=ASAP-0000385-001
[10] = read-out: perc_inhibition_mean, batch_name=ASAP-0000457-001
[11] = read-out: perc_inhibition_mean, batch_name=ASAP-0000349-001
[12] = read-out: perc_inhibition_mean, batch_name=ASAP-0000345-001
[13] = read-out: perc_inhibition_mean, batch_name=ASAP-0000406-001

O=C(N[C@H](Cn1cnc2cc(F)c(F)cc21)C(=O)O)c1ncnc2[nH]ccc12 [ASAP-0000469]
perc_inhibition_mean (SARS-CoV-2 nsp3-mac1 [1]; concentration 49.75 uM): -2.035% | perc_inhibition_mean (SARS-CoV-2 nsp3-mac1 [1]; concentration 99.5 uM): 8.395% | inhibition at 49.75 µM (SARS-CoV-2 nsp3-mac1 [2]; [3]): -2.04% | inhibition at 99.5 µM (SARS-CoV-2 nsp3-mac1 [2]; [3]): 8.39%

COc1cccc(NC(=O)c2ccc(NC(=O)Nc3ccccc3)cc2)n1 [ASAP-0000309]
perc_inhibition_mean (SARS-CoV-2 nsp3-mac1 [1]; concentration 49.75 uM, n=2): 4.647% | perc_inhibition_mean (SARS-CoV-2 nsp3-mac1 [1]; concentration 99.5 uM, n=2): 5.367% | inhibition at 49.75 µM (SARS-CoV-2 nsp3-mac1 [2]; [4]): 4.65% | inhibition at 99.5 µM (SARS-CoV-2 nsp3-mac1 [2]; [4]): 5.37%

c1ccc2sc([C@@H]3CCCN(c4ncnc5[nH]ccc45)C3)nc2c1 [ASAP-0000085]
perc_inhibition_mean (SARS-CoV-2 nsp3-mac1 [1]; concentration 50.0 uM): -0.779% | inhibition at 50 µM (SARS-CoV-2 nsp3-mac1 [2]; read-out: perc_inhibition_mean, batch_name=ASAP-0000085-001): -0.779%

CC(C)[C@H]1CN(c2ncnc3[nH]ccc23)[C@H]1C(C)C [ASAP-0000465]
perc_inhibition_mean (SARS-CoV-2 nsp3-mac1 [1]; concentration 49.75 uM): 0.348% | perc_inhibition_mean (SARS-CoV-2 nsp3-mac1 [1]; concentration 99.5 uM): -2.201% | inhibition at 49.75 µM (SARS-CoV-2 nsp3-mac1 [2]; [5]): 0.348% | inhibition at 99.5 µM (SARS-CoV-2 nsp3-mac1 [2]; [5]): -2.2%

Cc1nc(NC(=O)[C@@H]2CCCOC2)c2ccnc-2[nH]1 [ASAP-0000078]
perc_inhibition_mean (SARS-CoV-2 nsp3-mac1 [1]; concentration 50.0 uM): -3.202% | inhibition at 50 µM (SARS-CoV-2 nsp3-mac1 [2]; read-out: perc_inhibition_mean, batch_name=ASAP-0000078-001): -3.2%

CN1CCOc2cccc(NC(=O)Nc3cnc4[nH]ncc4c3)c21 [ASAP-0000035]
perc_inhibition_mean (SARS-CoV-2 nsp3-mac1 [1]; concentration 50.0 uM): -6.537% | inhibition at 50 µM (SARS-CoV-2 nsp3-mac1 [2]; read-out: perc_inhibition_mean, batch_name=ASAP-0000035-001): -6.54%

Cn1cc([C@@H](Nc2ncnc3[nH]ccc23)c2ccccc2)cn1 [ASAP-0000380]
perc_inhibition_mean (SARS-CoV-2 nsp3-mac1 [1]; concentration 49.75 uM): 19.983% | perc_inhibition_mean (SARS-CoV-2 nsp3-mac1 [1]; concentration 99.5 uM): 39.262% | inhibition at 49.75 µM (SARS-CoV-2 nsp3-mac1 [2]; [6]): 20% | inhibition at 99.5 µM (SARS-CoV-2 nsp3-mac1 [2]; [6]): 39.3%

Cc1nc(NC(=O)c2ccnn2C(C)C)c2cc[nH]c2n1 [ASAP-0000268]
perc_inhibition_mean (SARS-CoV-2 nsp3-mac1 [1]; concentration 50.0 uM, n=2): -2.642% | perc_inhibition_mean (SARS-CoV-2 nsp3-mac1 [1]; concentration 100.0 uM, n=2): -4.346% | inhibition at 50 µM (SARS-CoV-2 nsp3-mac1 [2]; [7]): -2.64% | inhibition at 100 µM (SARS-CoV-2 nsp3-mac1 [2]; [7]): -4.35%

O=C(NC1CCC(F)(F)CC1)c1ncnc2[nH]ccc12 [ASAP-0000282]
perc_inhibition_mean (SARS-CoV-2 nsp3-mac1 [1]; concentration 49.75 uM, n=2): -3.47% | perc_inhibition_mean (SARS-CoV-2 nsp3-mac1 [1]; concentration 99.5 uM, n=2): -5.78% | inhibition at 49.75 µM (SARS-CoV-2 nsp3-mac1 [2]; [8]): -3.47% | inhibition at 99.5 µM (SARS-CoV-2 nsp3-mac1 [2]; [8]): -5.78%

O=C(c1cnc2[nH]ncc2c1)N1CCC(c2ccn3ncc(C(=O)N4CCCCC4)c3c2)CC1 [ASAP-0000385]
perc_inhibition_mean (SARS-CoV-2 nsp3-mac1 [1]; concentration 49.75 uM): 15.807% | perc_inhibition_mean (SARS-CoV-2 nsp3-mac1 [1]; concentration 99.5 uM): 34.368% | inhibition at 49.75 µM (SARS-CoV-2 nsp3-mac1 [2]; [9]): 15.8% | inhibition at 99.5 µM (SARS-CoV-2 nsp3-mac1 [2]; [9]): 34.4%

c1coc(CNc2ncnc3[nH]cnc23)c1 [ASAP-0000198]
perc_inhibition_mean (SARS-CoV-2 nsp3-mac1 [1]; concentration 50.0 uM): 2.634% | inhibition at 50 µM (SARS-CoV-2 nsp3-mac1 [2]; read-out: perc_inhibition_mean, batch_name=ASAP-0000198-001): 2.63%

COc1nc2cc(NC(=O)c3cc(N4CCNC4=O)ccc3F)ccc2[nH]1 [ASAP-0000070]
perc_inhibition_mean (SARS-CoV-2 nsp3-mac1 [1]; concentration 50.0 uM): -4.208% | inhibition at 50 µM (SARS-CoV-2 nsp3-mac1 [2]; read-out: perc_inhibition_mean, batch_name=ASAP-0000070-001): -4.21%

c1ccc(CN2CCO[C@@H](CNc3ncnc4nc[nH]c34)C2)cc1 [ASAP-0000007]
perc_inhibition_mean (SARS-CoV-2 nsp3-mac1 [1]; concentration 50.0 uM): -2.441% | inhibition at 50 µM (SARS-CoV-2 nsp3-mac1 [2]; read-out: perc_inhibition_mean, batch_name=ASAP-0000007-001): -2.44%

Cn1nc(C(=O)O)cc1C(=O)N1CCC(c2ccn3ncc(C(=O)N4CCCCC4)c3c2)CC1 [ASAP-0000457]
perc_inhibition_mean (SARS-CoV-2 nsp3-mac1 [1]; concentration 49.75 uM): 34.252% | perc_inhibition_mean (SARS-CoV-2 nsp3-mac1 [1]; concentration 99.5 uM): 52.667% | inhibition at 49.75 µM (SARS-CoV-2 nsp3-mac1 [2]; [10]): 34.3% | inhibition at 99.5 µM (SARS-CoV-2 nsp3-mac1 [2]; [10]): 52.7%

O=C(OCc1ccc(Cl)nc1)c1ncnc2[nH]ccc12 [ASAP-0000066]
perc_inhibition_mean (SARS-CoV-2 nsp3-mac1 [1]; concentration 50.0 uM): 6.084% | inhibition at 50 µM (SARS-CoV-2 nsp3-mac1 [2]; read-out: perc_inhibition_mean, batch_name=ASAP-0000066-001): 6.08%

CN1CCC[C@@H]1CNC(=O)c1cnn2ccc(C3CCN(C(=O)c4ccccc4)CC3)cc12 [ASAP-0000349]
perc_inhibition_mean (SARS-CoV-2 nsp3-mac1 [1]; concentration 49.75 uM, n=2): -4.432% | perc_inhibition_mean (SARS-CoV-2 nsp3-mac1 [1]; concentration 99.5 uM, n=2): 1.495% | inhibition at 49.75 µM (SARS-CoV-2 nsp3-mac1 [2]; [11]): -4.43% | inhibition at 99.5 µM (SARS-CoV-2 nsp3-mac1 [2]; [11]): 1.5%

O=C(Cc1ccc(F)cc1)Nc1ccc2[nH]ncc2c1 [ASAP-0000032]
perc_inhibition_mean (SARS-CoV-2 nsp3-mac1 [1]; concentration 50.0 uM): 1.139% | inhibition at 50 µM (SARS-CoV-2 nsp3-mac1 [2]; read-out: perc_inhibition_mean, batch_name=ASAP-0000032-001): 1.14%

O=C(c1cnc[nH]1)N1CCC(c2ccn3ncc(C(=O)N4CCCCC4)c3c2)CC1 [ASAP-0000345]
perc_inhibition_mean (SARS-CoV-2 nsp3-mac1 [1]; concentration 49.75 uM, n=2): 20.282% | perc_inhibition_mean (SARS-CoV-2 nsp3-mac1 [1]; concentration 99.5 uM, n=2): 35.337% | inhibition at 49.75 µM (SARS-CoV-2 nsp3-mac1 [2]; [12]): 20.3% | inhibition at 99.5 µM (SARS-CoV-2 nsp3-mac1 [2]; [12]): 35.3%

CCN1CCN(C(=O)c2cnn3ccc(C4CCN(C(=O)c5ccccc5)CC4)cc23)CC1=O [ASAP-0000406]
perc_inhibition_mean (SARS-CoV-2 nsp3-mac1 [1]; concentration 49.75 uM): -8.634% | perc_inhibition_mean (SARS-CoV-2 nsp3-mac1 [1]; concentration 99.5 uM): -3.464% | inhibition at 49.75 µM (SARS-CoV-2 nsp3-mac1 [2]; [13]): -8.63% | inhibition at 99.5 µM (SARS-CoV-2 nsp3-mac1 [2]; [13]): -3.46%
